Reference: the NIST ThermoML archive (doi:10.1016/j.jct.2017.06.001)
Numbers after ± are expanded uncertainties.

Experiment: xn = mol fraction of the nth substance listed
Settings: 308.15 K, 100 kPa, Liquid; for speed of sound: Frequency=5 MHz, Pulse-echo method; for mass density: Vibrating tube method

OCCCCCO [1,5-pentanediol] + O
Settings	mass density [kg/m3]	speed of sound [m/s]
x1 = 0.005	993.57 ± 0.52	–
x1 = 0.0101	993.45 ± 1	–
x1 = 0.0196	993.6 ± 1	–
x1 = 0.0251	993.93 ± 1	–
x1 = 0.0304	994.32 ± 1	–
x1 = 0.05	995.28 ± 1	–
x1 = 0.0769	995.98 ± 1	–
x1 = 0.0798	–	1647 ± 1.2
x1 = 0.0835	–	1649.2 ± 1.2
x1 = 0.0879	–	1651.5 ± 1.2
x1 = 0.0918	–	1653.4 ± 1.2
x1 = 0.0964	–	1655.5 ± 1.2
x1 = 0.1002	996.54 ± 1.1	1657 ± 1.2
x1 = 0.106	–	1659 ± 1.2
x1 = 0.1116	–	1660.7 ± 1.2
x1 = 0.1172	–	1662.1 ± 1.2
x1 = 0.1233	–	1663.4 ± 1.2
x1 = 0.131	–	1664.8 ± 1.2
x1 = 0.1377	–	1665.7 ± 1.2
x1 = 0.1435	–	1666.3 ± 1.2
x1 = 0.1438	996.71 ± 1.1	–
x1 = 0.1514	–	1666.9 ± 1.3
x1 = 0.161	–	1667.4 ± 1.3
x1 = 0.1675	–	1667.5 ± 1.3
x1 = 0.1737	–	1667.6 ± 1.3
x1 = 0.1787	–	1667.6 ± 1.3
x1 = 0.1838	–	1667.5 ± 1.3
x1 = 0.1845	996.26 ± 1.1	–
x1 = 0.1893	–	1667.4 ± 1.3
x1 = 0.1953	–	1667.2 ± 1.3
x1 = 0.2011	–	1667 ± 1.3
x1 = 0.2239	–	1665.8 ± 1.3
x1 = 0.2306	–	1665.4 ± 1.3
x1 = 0.2378	–	1664.9 ± 1.3
x1 = 0.2491	–	1664 ± 1.3
x1 = 0.2581	–	1663.3 ± 1.3
x1 = 0.2683	–	1662.5 ± 1.4
x1 = 0.2832	–	1661.2 ± 1.4
x1 = 0.3005	–	1659.5 ± 1.4
x1 = 0.3223	–	1657.4 ± 1.4
x1 = 0.3402	–	1655.5 ± 1.4
x1 = 0.3515	–	1654.3 ± 1.4
x1 = 0.3735	–	1651.8 ± 1.5
x1 = 0.3924	–	1649.6 ± 1.5
x1 = 0.4062	–	1647.9 ± 1.5
x1 = 0.4304	–	1644.9 ± 1.5
x1 = 0.4462	–	1642.8 ± 1.5
x1 = 0.4661	–	1640.2 ± 1.6
x1 = 0.4803	–	1638.3 ± 1.6
x1 = 0.4957	–	1636.1 ± 1.6
x1 = 0.5119	–	1633.9 ± 1.6
x1 = 0.5238	–	1632.2 ± 1.6
x1 = 0.5406	–	1629.8 ± 1.6
x1 = 0.5482	–	1628.7 ± 1.7
x1 = 0.5622	–	1626.7 ± 1.7
x1 = 0.5848	–	1623.5 ± 1.7
x1 = 0.6035	–	1620.8 ± 1.7
x1 = 0.6216	–	1618.2 ± 1.8
x1 = 0.6446	–	1615 ± 1.8
x1 = 0.6646	–	1612.2 ± 1.8
x1 = 0.6864	–	1609.3 ± 1.8
x1 = 0.7086	–	1606.4 ± 1.9
x1 = 0.7293	–	1603.7 ± 1.9
x1 = 0.7497	–	1601.1 ± 1.9
x1 = 0.7689	–	1598.8 ± 2
x1 = 0.7904	–	1596.2 ± 2
x1 = 0.8099	–	1593.9 ± 2
x1 = 0.8308	–	1591.5 ± 2
x1 = 0.8561	–	1588.6 ± 2.1
x1 = 0.8812	–	1585.8 ± 2.1
x1 = 0.9098	–	1582.5 ± 2.2
x1 = 0.9326	–	1579.9 ± 2.2
x1 = 0.9519	–	1577.5 ± 2.2
x1 = 0.9707	–	1575.2 ± 2.3
x1 = 0.9812	–	1573.8 ± 2.3
x1 = 0.9864	–	1573.2 ± 2.3
x1 = 0.9944	–	1572.1 ± 2.3
x1 = 1	–	1571.3 ± 2.3
